# Results reported in US20140107109A1, “AMINO-DIHYDROTHIAZINE AND AMINO-DIOXIDO DIHYDROTHIAZINE COMPOUNDS AS BETA-SECRETASE ANTAGONISTS AND METHODS OF USE” (Amgen Inc., priority 2012, published 2014).
# Assays:
# [1] = target: Beta Secretase enzyme (BACE1) (Homo sapiens, UniProt P56817); test: In vitro enzymatic BACE FRET assay; format: biochemical; details: average IC50, enzyme assay; read-out: BACE1 FRET assay IC50
# Procedure, shortened: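 BACE1 cleavage of a 50 nM fluorophore/quencher peptide FRET substrate ran for one hour in 0.05 M acetate pH 4.2, 10% DMSO, 100 uM genapol. Tris buffer raised pH to neutrality to stop the reaction before fluorescence was read (excitation 488 nm, […]).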
# [2] = system: Aβ40 in conditioned medium of cells stably expressing Amyloid Precursor Protein (APP); test: In vitro BACE cell-based assay (HEK cell assay), Aβ40 sandwich ELISA; details: Homo sapiens, HEK293; average IC50, cell assay
# Procedure, shortened: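 APP-stably expressing cells (40K/well, grown 24 h in DMEM/10% FBS) were treated 24 h with compounds in 10-point dose response starting at 100 μM or 10 μM, 0.1% DMSO final. Secreted Aβ40 was measured by sandwich ELISA (pAb40 capture, biotinylated 6E10 detection, europium time-resolved fluorescence); IC50 from percent inhibition.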
# [3] = target: T1, Cathepsin D (Cat D) (Homo sapiens, UniProt P07339); test: In vitro enzymatic Cathepsin D (Cat D) FRET assay; format: biochemical; details: read-out: CatD IC50
# T1 construct: Recombinant Cat D was expressed in CHO cells; made in house; host or cells: CHO cells
# Procedure, shortened: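 Recombinant Cat D expressed in CHO cells, used at 9 nM and pre-incubated one hour with serially diluted inhibitor in DMSO. Peptide substrate carries a fluorophore and quencher flanking the cleavage site; reaction stopped with Tris buffer raising pH to neutrality, then fluorescence read.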
# Beta Secretase enzyme (BACE1), sequence (P56817 46-501): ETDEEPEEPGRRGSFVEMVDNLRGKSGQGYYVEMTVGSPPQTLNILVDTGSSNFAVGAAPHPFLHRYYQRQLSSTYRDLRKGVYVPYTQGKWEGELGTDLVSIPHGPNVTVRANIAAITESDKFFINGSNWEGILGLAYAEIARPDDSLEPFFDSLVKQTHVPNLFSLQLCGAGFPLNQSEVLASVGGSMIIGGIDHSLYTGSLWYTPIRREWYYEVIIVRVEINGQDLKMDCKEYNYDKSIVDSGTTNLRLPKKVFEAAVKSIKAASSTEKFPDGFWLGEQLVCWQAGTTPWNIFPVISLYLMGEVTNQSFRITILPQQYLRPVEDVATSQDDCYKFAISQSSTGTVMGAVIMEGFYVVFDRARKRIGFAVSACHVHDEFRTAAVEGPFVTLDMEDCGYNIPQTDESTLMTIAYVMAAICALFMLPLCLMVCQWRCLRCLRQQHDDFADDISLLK
# T1 sequence (P07339 65-412, species assumed): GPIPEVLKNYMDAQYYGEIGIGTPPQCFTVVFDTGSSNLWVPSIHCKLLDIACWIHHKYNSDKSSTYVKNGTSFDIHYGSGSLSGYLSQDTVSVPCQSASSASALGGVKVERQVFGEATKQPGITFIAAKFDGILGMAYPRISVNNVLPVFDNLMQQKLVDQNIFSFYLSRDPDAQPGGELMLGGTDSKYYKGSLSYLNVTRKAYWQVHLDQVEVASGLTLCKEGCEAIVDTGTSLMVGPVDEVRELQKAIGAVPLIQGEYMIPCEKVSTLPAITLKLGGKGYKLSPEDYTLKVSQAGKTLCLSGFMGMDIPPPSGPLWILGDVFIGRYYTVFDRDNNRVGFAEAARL
IC50 [1],IC50 [2],IC50 [3],SMILES
0.0969 µM,0.121 µM,207 µM,"CC1(C)C(N)=N[C@](C)(c2cc(Oc3ncccc3Cl)ccc2F)CS1(=O)=O [Example 258, (5R)-5-(5-((3-chloro-2-pyridinyl)oxy)-2-fluorophenyl)-2,2,5-trimethyl-5,6-dihydro-2H-1,4-thiazin-3-amine 1,1-dioxide]"
0.153 µM,0.248 µM,1050 µM,"CC1(C)C(N)=N[C@](C)(c2cc(Oc3cc(C(F)(F)F)ccn3)ccc2F)CS1(=O)=O [Example 259, (5R)-5-(2-fluoro-5-((4-(trifluoromethyl)-2-pyridinyl)oxy)phenyl)-2,2,5-trimethyl-5,6-dihydro-2H-1,4-thiazin-3-amine 1,1-dioxide]"
0.0038 µM,0.0075 µM,250 µM,"CC1(C)C(N)=N[C@](C)(c2cc(Nc3nccc4cc(OCC5CC5)cnc34)ccc2F)CS1(=O)=O [Example 260, N-(3-((3R)-5-amino-3,6,6-trimethyl-1,1-dioxido-3,6-dihydro-2H-1,4-thiazin-3-yl)-4-fluorophenyl)-3-(cyclopropylmethoxy)-1,7-naphthyridin-8-amine]"
0.3 µM,0.574 µM,58.3 µM,"CC1(C)C(N)=N[C@](C)(c2cc(Oc3ccc4ccccc4n3)ccc2F)CS1(=O)=O [Example 261, (5R)-5-(2-fluoro-5-(2-quinolinyloxy)phenyl)-2,2,5-trimethyl-5,6-dihydro-2H-1,4-thiazin-3-amine 1,1-dioxide]"
15.5 µM,> 15.6 µM,68.1 µM,"CC1(C)C(N)=N[C@](C)(c2cc(Oc3ncc(F)c(C(F)(F)F)c3F)ccc2F)CS1(=O)=O [Example 262, (5R)-5-(5-((3,5-difluoro-4-(trifluoromethyl)-2-pyridinyl)oxy)-2-fluorophenyl)-2,2,5-trimethyl-5,6-dihydro-2H-1,4-thiazin-3-amine 1,1-dioxide]"
0.65 µM,0.624 µM,555 µM,"Cc1cccnc1Oc1ccc(F)c([C@]2(C)CS(=O)(=O)C(C)(C)C(N)=N2)c1 [Example 263, (5R)-5-(2-fluoro-5-((3-methyl-2-pyridinyl)oxy)phenyl)-2,2,5-trimethyl-5,6-dihydro-2H-1,4-thiazin-3-amine 1,1-dioxide]"
0.18 µM,0.126 µM,878 µM,"Cc1ccnc(Oc2ccc(F)c([C@]3(C)CS(=O)(=O)C(C)(C)C(N)=N3)c2)c1 [Example 264, (5R)-5-(2-fluoro-5-((4-methyl-2-pyridinyl)oxy)phenyl)-2,2,5-trimethyl-5,6-dihydro-2H-1,4-thiazin-3-amine 1,1-dioxide]"
2.26 µM,0.804 µM,373 µM,"Cc1ccc(Oc2ccc(F)c([C@]3(C)CS(=O)(=O)C(C)(C)C(N)=N3)c2)nc1 [Example 265, (5R)-5-(2-fluoro-5-((5-methyl-2-pyridinyl)oxy)phenyl)-2,2,5-trimethyl-5,6-dihydro-2H-1,4-thiazin-3-amine 1,1-dioxide]"
0.413 µM,0.427 µM,407 µM,"Cc1cccc(Oc2ccc(F)c([C@]3(C)CS(=O)(=O)C(C)(C)C(N)=N3)c2)n1 [Example 266, (5R)-5-(2-fluoro-5-((6-methyl-2-pyridinyl)oxy)phenyl)-2,2,5-trimethyl-5,6-dihydro-2H-1,4-thiazin-3-amine 1,1-dioxide]"
0.603 µM,0.874 µM,221 µM,"CC1(C)C(N)=N[C@](C)(c2cc(Oc3ncc(C(F)(F)F)cc3Cl)ccc2F)CS1(=O)=O [Example 267, (5R)-5-(5-((3-chloro-5-(trifluoromethyl)-2-pyridinyl)oxy)-2-fluorophenyl)-2,2,5-trimethyl-5,6-dihydro-2H-1,4-thiazin-3-amine 1,1-dioxide]"
0.318 µM,0.305 µM,920 µM,"CC1(C)C(N)=N[C@](C)(c2cc(Oc3cc(N)nc(N)n3)ccc2F)CS1(=O)=O [Example 268, 6-(3-((3R)-5-amino-3,6,6-trimethyl-1,1-dioxido-3,6-dihydro-2H-1,4-thiazin-3-yl)-4-fluorophenoxy)-2,4-pyrimidinediamine]"
0.248 µM,0.574 µM,132 µM,"CC1(C)C(N)=N[C@](C)(c2cc(Oc3cccc(C(F)(F)F)n3)ccc2F)CS1(=O)=O [Example 269, (5R)-5-(2-fluoro-5-((6-(trifluoromethyl)-2-pyridinyl)oxy)phenyl)-2,2,5-trimethyl-5,6-dihydro-2H-1,4-thiazin-3-amine 1,1-dioxide]"
0.0935 µM,0.0511 µM,222 µM,"CC1(C)C(N)=N[C@](C)(c2cc(Oc3cnccn3)ccc2F)CS1(=O)=O [Example 270, (5R)-5-(2-fluoro-5-(2-pyrazinyloxy)phenyl)-2,2,5-trimethyl-5,6-dihydro-2H-1,4-thiazin-3-amine 1,1-dioxide]"
0.549 µM,0.474 µM,540 µM,"Cc1cc(C#N)cnc1Oc1ccc(F)c([C@]2(C)CS(=O)(=O)C(C)(C)C(N)=N2)c1 [Example 271, 6-(3-((3R)-5-amino-3,6,6-trimethyl-1,1-dioxido-3,6-dihydro-2H-1,4-thiazin-3-yl)-4-fluorophenoxy)-5-methyl-3-pyridinecarbonitrile]"
2.69 µM,2.02 µM,217 µM,"Cc1nc(Oc2ccc(F)c([C@]3(C)CS(=O)(=O)C(C)(C)C(N)=N3)c2)ccc1C#N [Example 272, 6-(3-((3R)-5-amino-3,6,6-trimethyl-1,1-dioxido-3,6-dihydro-2H-1,4-thiazin-3-yl)-4-fluorophenoxy)-2-methyl-3-pyridinecarbonitrile]"
1.5 µM,1.01 µM,> 400 µM,"CC1(C)C(N)=N[C@](C)(c2cc(Oc3ncccc3N)ccc2F)CS1(=O)=O [Example 273, (5R)-5-(5-((3-amino-2-pyridinyl)oxy)-2-fluorophenyl)-2,2,5-trimethyl-5,6-dihydro-2H-1,4-thiazin-3-amine 1,1-dioxide]"
0.0374 µM,0.0348 µM,153 µM,"CC1(C)C(N)=N[C@](C)(c2cc(Oc3ncccc3F)ccc2F)CS1(=O)=O [Example 274, (5R)-5-(2-fluoro-5-((3-fluoro-2-pyridinyl)oxy)phenyl)-2,2,5-trimethyl-5,6-dihydro-2H-1,4-thiazin-3-amine 1,1-dioxide]"
0.84 µM,0.424 µM,364 µM,"CC1(C)C(N)=N[C@](C)(c2cc(Oc3ccc(F)cn3)ccc2F)CS1(=O)=O [Example 275, (5R)-5-(2-fluoro-5-((5-fluoro-2-pyridinyl)oxy)phenyl)-2,2,5-trimethyl-5,6-dihydro-2H-1,4-thiazin-3-amine 1,1-dioxide]"
2.71 µM,2.63 µM,421 µM,"Cc1cc(Oc2ccc(F)c([C@]3(C)CS(=O)(=O)C(C)(C)C(N)=N3)c2)ncc1Cl [Example 276, (5R)-5-(5-((5-chloro-4-methyl-2-pyridinyl)oxy)-2-fluorophenyl)-2,2,5-trimethyl-5,6-dihydro-2H-1,4-thiazin-3-amine 1,1-dioxide]"
1.21 µM,1.15 µM,331 µM,"CC1(C)C(N)=N[C@](C)(c2cc(Oc3ncc(C(F)(F)F)cc3F)ccc2F)CS1(=O)=O [Example 277, (5R)-5-(2-fluoro-5-((3-fluoro-5-(trifluoromethyl)-2-pyridinyl)oxy)phenyl)-2,2,5-trimethyl-5,6-dihydro-2H-1,4-thiazin-3-amine 1,1-dioxide]"
